From US20220387303A1, “Vaginal Drug Delivery Device” (THE REGENTS OF THE UNIVERSITY OF CALIFORNIA, priority 2019, published 2022) come the findings set out here.

The test system of data set [1] is Candida albicans (ATCC 18804). Description: Liquid assay, inhibition of yeast growth in Sabouraud dextrose broth. The class given is cell-based. Conditions: for Optical Density (OD600): 12 h; for Cell Density: converted from OD600. How it is done: Liquid assay was also used to further characterize the […] properties. Candida albicans (ATCC 18804) was cultured in Sabouraud dextrose broth with a starting concentration of 0.08 OD600 value. After 12 h, optical density was measured using spectrometer at 600 nm wavelength. Then, conversion to cell density is using the approximation 0.5 equals 1.5×10^8 CFU/ml.

Data set [2] can be described thus: In vitro cumulative drug release from devices in PBS (pH 7.4) at 37° C. under gentle shaking. The class given is physicochemical.

The structures appear in SMILES notation. ≈ marks a conversion by molar mass, not a printed value.

As to `Clc1ccccc1C(c1ccccc1)(c1ccccc1)n1ccnc1` [Clotrimazole], the IC50 in data set [1] (Candida albicans, ATCC18804, after 12 h, starting 0.08 OD600, read-out: IC50 (half maximal inhibitory concentration)) is 3.3 µg/mL (≈ 9.57 µM). In addition, the “Optical Density (OD600)” value in data set [1] (Clotrimazole Conc. 0.37 μg/ml) came out at 0.9; in data set [1] (Clotrimazole Conc. 1.1 μg/ml) it was 0.8; in data set [1] (Clotrimazole Conc. 3.3 μg/ml), 0.7; in data set [1] (Clotrimazole Conc. 10 μg/ml) it was 0.5. Besides, the “Cell Density” value in data set [1] (Clotrimazole Conc. 0.37 μg/ml) was 2.7e+08 mL⁻¹; in data set [1] (Clotrimazole Conc. 1.1 μg/ml), 2.4e+08 mL⁻¹; in data set [1] (Clotrimazole Conc. 3.3 μg/ml), 2.1e+08 mL⁻¹; in data set [1] (Clotrimazole Conc. 10 μg/ml), 1.5e+08 mL⁻¹. Moreover, the sustained release duration result in data set [2] (clotrimazole from PLGA device) is “up to 10 days”.

In the case of `CC(=O)[C@H]1CC[C@H]2[C@@H]3CCC4=CC(=O)CC[C@]4(C)[C@H]3CC[C@]12C` [progesterone], in data set [2] (released from device), the “prolonged and sustained release of hormone drugs, duration” value is on record as “more than two months”.
